Values of other authors, collected in patent US20230191113A1, “METHOD AND APPARATUS FOR CANCER TREATMENT” (Minnesota Medical Physics LLC, priority 2020, published 2023).

Legend:
[1] = biological target: T1, A3 receptors (Homo sapiens, UniProt P0DMS8); conditions: allosteric enhancer added to A3AR agonist; cited from earlier work
T1 sequence (P0DMS8 1-318): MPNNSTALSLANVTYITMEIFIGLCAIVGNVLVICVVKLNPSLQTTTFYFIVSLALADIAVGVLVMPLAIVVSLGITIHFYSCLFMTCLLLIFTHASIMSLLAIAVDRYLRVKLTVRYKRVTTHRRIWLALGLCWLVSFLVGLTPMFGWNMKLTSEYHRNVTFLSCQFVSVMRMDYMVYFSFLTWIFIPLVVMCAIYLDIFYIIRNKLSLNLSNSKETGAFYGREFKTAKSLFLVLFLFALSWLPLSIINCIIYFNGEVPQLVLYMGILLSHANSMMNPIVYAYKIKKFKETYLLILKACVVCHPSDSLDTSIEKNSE

[2] = system: cancer tumors; conditions: cited from earlier work

Clc1ccc(Nc2nc3ccccc3c3nc(C4CCCCC4)[nH]c23)cc1Cl [LUF6000]
increase of the maximum efficacy of A3 receptors agonists [1]: 45%

CNC(=O)[C@H]1O[C@@H](n2cnc3c(NCc4cccc(I)c4)nc(Cl)nc32)[C@H](O)[C@@H]1O [CL-IB-MECA]
increase of the apoptotic rate by one-dimensional EFS ([2]; CL-IB-MECA plus one-dimensional EFS): 0.4 factor
effect on growth of cancer tumors ([2]; multiple studies, significant dose of A3AR agonist alone): slowed down the growth of cancer tumors
